In PubChem BioAssay AID330 (DTP/NCI, 2004):
“And” between values parts separate entries of the source, which are not always exact repeats. Equal entries are not always repeated. Inconclusive results and toxic doses are left out.

System: P388 leukemia ip, CD2F1 mice, survival T/C
Experiment: NCI In Vivo Anticancer Drug Screen. Data for tumor model P388 Leukemia (intraperitoneal) in CD2F1 (CDF1) mice
Conditions: endpoint: median survival time, higher = longer survival
Summary of the method: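 Mice carrying the transplanted tumor received test compound or vehicle. Survival was recorded in each group, and the value is the treated-group measurement divided by that of the vehicle-treated control group.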

[1] = dose: 12.5 mg/kg/injection, schedule: Q01DX009 (ip), vehicle: saline with Tween-80
[2] = dose: 50.0 mg/kg/injection, schedule: Q01DX009 (ip), vehicle: saline with Tween-80
[3] = dose: 100.0 mg/kg/injection, schedule: Q01DX009 (ip), vehicle: saline with Tween-80

## CN1CCC2(CC1)OCCO2
dose: 25.0 mg/kg/injection, schedule: Q01DX005 (ip), vehicle: Klucel (hydroxypropylcellulose) (HPC)
  T/C: 100 % of control
dose: 50.0 mg/kg/injection, schedule: Q01DX005 (ip), vehicle: Klucel (hydroxypropylcellulose) (HPC)
  T/C: 100 % of control
dose: 100.0 mg/kg/injection, schedule: Q01DX005 (ip), vehicle: Klucel (hydroxypropylcellulose) (HPC)
  T/C: 89 % of control
dose: 200.0 mg/kg/injection, schedule: Q01DX005 (ip), vehicle: Klucel (hydroxypropylcellulose) (HPC)
  T/C: 89 % of control

## CN1CCC(=C2c3ccccc3CCc3sccc32)CC1
dose: 12.5 mg/kg/injection, schedule: Q01DX009 (ip), vehicle: saline
  T/C: 103 % of control
dose: 25.0 mg/kg/injection, schedule: Q01DX009 (ip), vehicle: saline
  T/C: 104 % of control
dose: 50.0 mg/kg/injection, schedule: Q01DX009 (ip), vehicle: saline
  T/C: 101 % of control and 103 % of control
dose: 100.0 mg/kg/injection, schedule: Q01DX009 (ip), vehicle: saline
  T/C: 108 % of control

## CNc1c(F)c(C#N)c(F)c(F)c1C#N
[1]
  T/C: 96 % of control
dose: 25.0 mg/kg/injection, schedule: Q01DX009 (ip), vehicle: saline with Tween-80
  T/C: 89 % of control
[2]
  T/C: 100 % of control

## CCOC(=O)c1ccc(NN=NC)cc1
[1]
  T/C: 108 % of control and 113 % of control
[2]
  T/C: 154 % of control and 173 % of control
[3]
  T/C: 108 % of control and 91 % of control

## CN1C2C=CC(=O)C1C1C(=O)N(c3ccccc3)C(=O)C12 (stereo not drawn)
dose: 17.5 mg/kg/injection, schedule: Q01DX005 (ip), vehicle: Klucel (hydroxypropylcellulose) (HPC)
  T/C: 109 % of control and 121 % of control
dose: 35.0 mg/kg/injection, schedule: Q01DX005 (ip), vehicle: Klucel (hydroxypropylcellulose) (HPC)
  T/C: 113 % of control and 118 % of control
dose: 70.0 mg/kg/injection, schedule: Q01DX005 (ip), vehicle: Klucel (hydroxypropylcellulose) (HPC)
  T/C: 121 % of control

## COc1ccc(OC)c(NC(=O)Oc2c(C)cc(Cl)cc2Br)c1
[2]
  T/C: 97 % of control
[3]
  T/C: 99 % of control
dose: 200.0 mg/kg/injection, schedule: Q01DX009 (ip), vehicle: saline with Tween-80
  T/C: 100 % of control

## O=[N+]([O-])c1ccccc1N(CCO)CCO
dose: 60.0 mg/kg/injection, schedule: Q01DX005 (ip), vehicle: saline with Tween-80
  T/C: 96 % of control
dose: 120.0 mg/kg/injection, schedule: Q01DX005 (ip), vehicle: saline with Tween-80
  T/C: 99 % of control
dose: 240.0 mg/kg/injection, schedule: Q01DX005 (ip), vehicle: saline with Tween-80
  T/C: 98 % of control
